Structures are written as SMILES.

The test system of test [1] is L1210. As to the kind of experiment: Inhibitory activity against lymphoid leukemia L1210 cells. The test is classed as functional, cell-based. To be noted: Mus musculus.
Test [2] concerns L1210. As to the kind of experiment: Mitotic index (fraction of cells in mitosis divided by total cells) in cultured lymphoid leukemia L1210 cells. The test is classed as functional, Mus musculus.
Test [3] concerns P388. Briefly: Increase in the life span of mice with P388 leukemia after the administration of the highest non toxic dose (30 mg/kg). Type of test: functional. To be noted: Mus musculus.
The subject of test [4] is P388. Briefly: Increase in the life span of mice with P388 leukemia after the administration of the highest non toxic dose (1 mg/kg). The test is classed as functional. Conditions: Mus musculus.
Test [5] deals with P388. As to the kind of experiment: Increase in the life span of mice with P388 leukemia after the administration of the highest non toxic dose (2 mg/kg). The test is classed as functional, Mus musculus.
Test [6] concerns P388. As to the kind of experiment: Increase in the life span of mice with P388 leukemia after the administration of the highest non toxic dose (0.5 mg/kg). The test is classed as functional, Mus musculus.

Consider `CCOC(=O)Nc1cc2c(c(N)n1)N=C(c1ccccc1)[C@@H](C)N2`, for which inhibition in the test with L1210 [1] was half-maximal at 17 nM (IC50). The same molecule displayed an MI0.5 in the test on L1210 [2] of 27 nM. Besides, the ILS at 30 mg/kg in the test with P388 [3] was 88%.

In turn, `CCOC(=O)Nc1cc2c(c(N)n1)N=C(c1ccccc1)C(C)N2` (configuration not stated) came in with an increase in lifespan (ILS) at 1 mg/kg in the test with P388 [4] of 71%. In the test with L1210 [1], the half-maximal inhibitory concentration (IC50) came to 0.2 nM. The MI0.5 in the test with L1210 [2] is on record as 0.58 nM.

Molecule `CCOC(=O)Nc1cc2c(c(N)n1)N=C(c1ccccc1)CN2` came in with an Increase in the test with P388 [5] of 51%. Besides, in the test on L1210 [1], the half-inhibitory concentration (IC50) worked out at 4.7 nM. Besides, the MI0.5 in the test with L1210 [2] is listed as 2.8 nM.

The molecule `CCOC(=O)Nc1cc2c(c(N)n1)N=C(c1ccccc1)[C@H](C)N2` [MIVOBULIN] gave an Increase in the test with P388 [6] of 64%. In addition, 0.094 nM corresponded to half-maximal inhibition in the test on L1210 [1] (IC50). In the test on L1210 [2], this molecule had an MI0.5 of 0.14 nM.

(Values after ChEMBL document CHEMBL1124583, “New anticancer agents: chiral isomers of ethyl 5-amino-1,2-dihydro-2-methyl-3-phenylpyrido[3,4-b]pyrazine-7-car bamate ” (J Med Chem, 1989).)
